The source of these data is patent publication US20180057547A1, “DIAGNOSTIC AND THERAPEUTIC EPITOPE, AND TRANSGENIC PLANT” (OXFORD UNIVERSITY INNOVATION LIMITED, priority 1999, published 2018).

The subject of one assay is HLA-DQ2. The note with it: cited from earlier work.
In assay [1] the test system is PBMC from coeliac volunteers. Description: Antagonism of A-gliadin 57-73 QE65 interferon gamma ELISPOT response (simultaneous addition of peptide). The format is cell-based, human. The conditions noted are these: peptides known to bind HLA-DQ2, 50 μg/ml plus A-gliadin 57-73 QE65 10 μg/ml. The protocol:
Simultaneous addition of peptide (50 μg/ml) or buffer and A-gliadin 57-73 QE65 (10 μg/ml) in IFNgamma ELISPOT using PBMC from coeliac volunteers 6 days after commencing 3 day gluten challenge (n=5). Results were expressed as response with peptide plus A-G 57-73 QE65 (mean of duplicates) as % response with buffer plus A-G 57-73 QE65 (mean of 20 replicates). (See Table 9).

Assay [2] deals with CD4 or CD8 depleted PBMC from coeliac disease subjects. The assay can be described thus: IFNγ ELISPOT with CD4 and CD8 magnetic bead depleted PBMC. It is filed as cell-based, human. The protocol:
Anti-CD4 or anti-CD8 coated magnetic beads (Dynal, Oslo, Norway) were washed four times with RPMI then incubated with PBMC in complete RPMI containing 10% heat inactivated human AB serum (5×10^6 cells/ml) for 30 minutes on ice. Beads were removed using a magnet and cells remaining counted. […] HLA-class II restriction of the immune response to tTG-treated A-gliadin 56-75 was established by incubating PBMC (5×10^6 cells/ml) with anti-HLA-DR (L243), -DQ (L2), and -DP (B7.21) monoclonal antibodies (10 μg/ml) at room temperature for one hour prior to the addition of peptide.

Assay [3] has as its system gluten-specific T cell clones and lines. The conditions noted are these: from original publications; iTCC intestinal T cell clone, iTCL intestinal polyclonal T cell line, bTCC peripheral blood T cell clone; NS not given; cited from earlier work.
For assay [4], the system named is PBMC from coeliac subjects. The assay can be described thus: IFNγ ELISPOT with PBMC of coeliac disease subjects after bread/gluten challenge. The format is cell-based, human. The conditions noted are these: 25 mcg/ml, 4 subjects, blank 5 (1) %; for ELISpot response as % A-gliadin 57-73 QE65, E-substituted: glutamate-substituted peptide; for ELISpot response as % A-gliadin 57-73 QE65, Wildtype + tTG: tTG-treated wild type peptide; for ELISpot response as % A-gliadin 57-73 QE65, Wild type: unmodified gliadin peptide.

“IDVWLGGLLAENFLPY [TP, reference compound]”: in the assay with HLA-DQ2, the “binding to HLA-DQ2” value is on record as “bind avidly to HLA-DQ2”. Besides, the “% Inhibit. of A-gliadin 57-73 QE65 interferon gamma ELISpot response” value in assay [1] is recorded as 31%.
As for “LQLQPFPQPQLPYPQPQSFP [A-gliadin 56-75, 20mer of A-gliadin, used tTG-treated]”, the “spot forming cells per million CD8 depleted PBMC” value in assay [2] (Subject 4, tTG treated peptide 0.1 μM) is reported as 29 spot forming cells per million CD8 depleted PBMC; in assay [2] (Subject 6, tTG treated peptide 0.1 μM) it was 535 spot forming cells per million CD8 depleted PBMC. Further, in assay [2] (anti-CD4 and anti-CD8 magnetic bead depletion, two subjects), the “cell subset mediating the IFNγ response” value is on record as “CD4 T cell-mediated”.
For the sequence PQPELPYPQPELPY [reference compound], the Frequency in assay [3] is on record as 11/17 (iTCL). Further, in assay [4], the “ELISpot response as % A-gliadin 57-73 QE65, E-substituted” value was 48 (9) %; the “ELISpot response as % A-gliadin 57-73 QE65, Wildtype + tTG” value was 53 (8) %; the “ELISpot response as % A-gliadin 57-73 QE65, Wild type” value is 13 (6) %.
On to “PRAPWIEQEGPEYW [HLA1a, reference compound]”, for which the “binding to HLA-DQ2” value in the assay on HLA-DQ2 is reported as “bind avidly to HLA-DQ2”. The entries for the “% Inhibit. of A-gliadin 57-73 QE65 interferon gamma ELISpot response” value in assay [1] and in assay [1] (listed as HLA class 1 α 46-60) were 0% and “does not alter responses”, respectively.
QLQPFPQPELPY [reference compound]: the Frequency in assay [3] is 12/17 (iTCL). For the same sequence, in assay [4], the “ELISpot response as % A-gliadin 57-73 QE65, E-substituted” value is on record as 8 (3) %; the “ELISpot response as % A-gliadin 57-73 QE65, Wildtype + tTG” value is 19 (1) %; the “ELISpot response as % A-gliadin 57-73 QE65, Wild type” value is listed as 6 (2) %.
